Test results reported in patent US10294202B2, “Pyrrolidinones as herbicides” (FMC Corporation, priority 2013, dated 2019).

Columns and labels:
[1] = system: kochia; assay: Test A pre-/postemergence herbicide test; assay type: in vivo, Kochia scoparia
Method in brief: (§1)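 Directed soil spray to seeded pots (preemergence) or spray onto one- to two-leaf seedlings 2–10 cm tall (postemergence); loam/sand substrate throughout. Evaluated visually after about 10 days against untreated plants, 0 = no effect, 100 = complete control.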

[2] = system: ducksalad; assay: Test B flooded paddy test; assay type: in vivo, Heteranthera limosa; details: 500 g ai/ha, Flood; scale of 0 to 100 where 0 is no effect and 100 is complete control
Method in brief: (§2)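 Scored visually 0–100 (0 no effect, 100 complete control) versus controls after 13 to 15 greenhouse days. Treatment: compound added to paddy water kept 3 cm above soil, on 2-leaf-stage plants.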

[3] = system: barnyardgrass; assay: Test B flooded paddy test; assay type: in vivo, Echinochloa crus-galli; details: 500 g ai/ha, Flood; scale of 0 to 100 where 0 is no effect and 100 is complete control
Method in brief: as §2

[4] = system: giant foxtail; assay: Test A pre-/postemergence herbicide test; assay type: in vivo, Setaria faberii
Method in brief: as §1

[5] = system: barnyardgrass; assay: Test A pre-/postemergence herbicide test; assay type: in vivo, Echinochloa crus-galli
Method in brief: as §1

[6] = system: blackgrass; assay: Test A postemergence herbicide test; assay type: in vivo, Alopecurus myosuroides
Method in brief: (§3)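 Ratings compare treated with untreated plants roughly 10 days after a postemergence application made at the one- to two-leaf stage. Scoring uses 0–100, where 0 means no effect and 100 complete control.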

[7] = system: sedge, umbrella; assay: Test B flooded paddy test; assay type: in vivo, Cyperus difformis; details: 500 g ai/ha, Flood; scale of 0 to 100 where 0 is no effect and 100 is complete control
Method in brief: as §2

[8] = system: ryegrass, Italian; assay: Test A pre-/postemergence herbicide test; assay type: in vivo, Lolium multiflorum
Method in brief: as §1

[9] = system: galium; assay: Test A postemergence herbicide test; assay type: in vivo, Galium aparine
Method in brief: as §3

[10] = system: pigweed; assay: Test A pre-/postemergence herbicide test; assay type: in vivo, Amaranthus retroflexus
Method in brief: as §1

[11] = system: rice; assay: Test B flooded paddy test; assay type: in vivo, Oryza sativa; details: 500 g ai/ha, Flood; scale of 0 to 100 where 0 is no effect and 100 is complete control
Method in brief: as §2

[12] = system: ragweed; assay: Test A pre-/postemergence herbicide test; assay type: in vivo, Ambrosia elatior
Method in brief: as §1

[13] = system: corn; assay: Test A pre-/postemergence herbicide test; assay type: in vivo, Zea mays; details: Postemergence
Method in brief: as §1

[14] = system: wheat; assay: Test A pre-/postemergence herbicide test; assay type: in vivo, Triticum aestivum; details: Postemergence
Method in brief: as §1

[15] = 125 g ai/ha, visual rating, 0 to 100 scale, 0 no effect, 100 complete control, approximately 10 days, preemergence
[16] = Postemergence, 125 g ai/ha, 0 to 100 scale, 0 no effect, 100 complete control
[17] = preemergence, 500 g ai/ha, 0 to 100 scale
[18] = 125 g ai/ha, 0 to 100 scale, 0 no effect, 100 complete control
[19] = Postemergence, 125 g ai/ha, visual rating on 0 to 100 scale (0 no effect, 100 complete control), approx. 10 days
[20] = Postemergence, 500 g ai/ha, 0 to 100 scale (0 no effect, 100 complete control)
[21] = Preemergence, 125 g ai/ha, 0 to 100 scale where 0 is no effect and 100 is complete control
[22] = Preemergence, 500 g ai/ha, visual rating on 0 to 100 scale (0 no effect, 100 complete control)
[23] = 125 g ai/ha, visual rating on 0 to 100 scale (0 no effect, 100 complete control), approx. 10 days
[24] = 500 g ai/ha, 0 to 100 scale (0 no effect, 100 complete control)

SMILES: Cc1ccc(C2CNC(=O)C2C(=O)Nc2ccc(F)cc2F)cc1 (racemic) [Compound 150]
- Plant response rating, Kochia [1, 15]: 60
- Plant response rating, Kochia [1, 16]: 30
- Kochia plant response rating (0 to 100 scale, 0 is no effect, 100 is complete control) ([1]; Postemergence, 500 g ai/ha): 60
- Plant response rating, Kochia [1, 17]: 90
- Plant response rating, Ducksalad [2]: 100
- Plant response rating, Barnyardgrass [3]: 80
- Plant response rating, Foxtail, Giant [4, 15]: 70
- Plant response rating, Foxtail, Giant [4, 16]: 30
- Foxtail, Giant plant response rating (0 to 100 scale, 0 is no effect, 100 is complete control) ([4]; Postemergence, 500 g ai/ha): 70
- Plant response rating, Foxtail, Giant [4, 17]: 90
- Plant response rating, Barnyardgrass [5, 15]: 80
- Plant response rating, Barnyardgrass [5, 16]: 80
- Barnyardgrass plant response rating (0 to 100 scale, 0 is no effect, 100 is complete control) ([5]; Postemergence, 500 g ai/ha): 80
- Plant response rating, Barnyardgrass ([5]; preemergence, 500 g ai/ha, 0 to 100 scale (0 no effect, 100 complete control)): 90
- Plant response rating, Blackgrass [6, 18]: 0
- Blackgrass plant response rating (0 to 100 scale, 0 is no effect, 100 is complete control) ([6]; 500 g ai/ha): 10
- Plant response rating, Sedge, Umbrella [7]: 0
- Plant response rating, Ryegrass, Italian [8, 15]: 0
- Plant response rating, Ryegrass, Italian [8, 16]: 0
- Ryegrass, Italian plant response rating (0 to 100 scale, 0 is no effect, 100 is complete control) ([8]; Postemergence, 500 g ai/ha): 0
- Plant response rating, Ryegrass, Italian [8, 17]: 50
- Plant response rating, Galium [9, 18]: 50
- Galium plant response rating (0 to 100 scale, 0 is no effect, 100 is complete control) ([9]; 500 g ai/ha): 60
- Plant response rating, Pigweed [10, 15]: 0
- Plant response rating, Pigweed [10, 16]: 0
- Pigweed plant response rating (0 to 100 scale, 0 is no effect, 100 is complete control) ([10]; Postemergence, 500 g ai/ha): 20
- Plant response rating, Pigweed [10, 17]: 0
- Plant response rating, Rice [11]: 0
- Plant response rating, Ragweed [12, 15]: 0
- Plant response rating, Ragweed [12, 16]: 0
- Ragweed plant response rating (0 to 100 scale, 0 is no effect, 100 is complete control) ([12]; Postemergence, 500 g ai/ha): 20
- Plant response rating, Ragweed [12, 17]: 50
- Plant response rating, Corn [13, 18]: 0
- Corn plant response rating (0 to 100 scale, 0 is no effect, 100 is complete control) ([13]; 500 g ai/ha): 30
- Plant response rating, Wheat [14, 18]: 0
- Wheat plant response rating (0 to 100 scale, 0 is no effect, 100 is complete control) ([14]; 500 g ai/ha): 0

SMILES: CCN1CC(c2ccc(C(F)(F)F)cc2)C(C(=O)Nc2cccc(F)c2F)C1=O (stereo not drawn) [Compound 336]
- Plant response rating, Kochia [1, 19]: 0
- Plant response rating, Kochia [1, 20]: 0
- Plant response rating, Kochia [1, 21]: 0
- Kochia plant response rating [1, 22]: 60
- Plant response rating, Ducksalad [2]: 60
- Plant response rating, Barnyardgrass [3]: 50
- Plant response rating, Foxtail, Giant [4, 19]: 70
- Plant response rating, Foxtail, Giant [4, 20]: 70
- Plant response rating, Foxtail, Giant [4, 21]: 80
- Foxtail, Giant plant response rating [4, 22]: 90
- Plant response rating, Barnyardgrass [5, 19]: 30
- Plant response rating, Barnyardgrass [5, 20]: 60
- Plant response rating, Barnyardgrass [5, 21]: 50
- Barnyardgrass plant response rating [5, 22]: 60
- Plant response rating, Blackgrass [6, 23]: 0
- Plant response rating, Blackgrass [6, 24]: 0
- Plant response rating, Sedge, Umbrella [7]: 0
- Plant response rating, Ryegrass, Italian [8, 19]: 0
- Plant response rating, Ryegrass, Italian [8, 20]: 0
- Plant response rating, Ryegrass, Italian [8, 21]: 0
- Ryegrass, Italian plant response rating [8, 22]: 20
- Plant response rating, Galium [9, 23]: 0
- Plant response rating, Galium [9, 24]: 0
- Plant response rating, Pigweed [10, 19]: 0
- Plant response rating, Pigweed [10, 20]: 0
- Plant response rating, Pigweed [10, 21]: 0
- Pigweed plant response rating [10, 22]: 20
- Plant response rating, Rice [11]: 0
- Plant response rating, Ragweed [12, 19]: 0
- Plant response rating, Ragweed [12, 20]: 0
- Plant response rating, Ragweed [12, 21]: 0
- Ragweed plant response rating [12, 22]: 0
- Plant response rating, Corn [13, 23]: 0
- Plant response rating, Corn [13, 24]: 0
- Plant response rating, Wheat [14, 23]: 0
- Plant response rating, Wheat [14, 24]: 0

SMILES: O=C1NCC(c2ccc(SC(F)(F)F)cc2)C1C(=O)Nc1ccc(F)c(F)c1F (stereo not drawn) [Compound 322]
- Plant response rating, Kochia [1, 19]: 0
- Plant response rating, Kochia [1, 20]: 0
- Plant response rating, Kochia [1, 21]: 0
- Kochia plant response rating [1, 22]: 0
- Plant response rating, Ducksalad [2]: 100
- Plant response rating, Barnyardgrass [3]: 0
- Plant response rating, Foxtail, Giant [4, 19]: 0
- Plant response rating, Foxtail, Giant [4, 20]: 60
- Plant response rating, Foxtail, Giant [4, 21]: 0
- Foxtail, Giant plant response rating [4, 22]: 70
- Plant response rating, Barnyardgrass [5, 19]: 0
- Plant response rating, Barnyardgrass [5, 20]: 60
- Plant response rating, Barnyardgrass [5, 21]: 0
- Barnyardgrass plant response rating [5, 22]: 40
- Plant response rating, Blackgrass [6, 23]: 0
- Plant response rating, Blackgrass [6, 24]: 0
- Plant response rating, Sedge, Umbrella [7]: 0
- Plant response rating, Ryegrass, Italian [8, 19]: 0
- Plant response rating, Ryegrass, Italian [8, 20]: 0
- Plant response rating, Ryegrass, Italian [8, 21]: 0
- Ryegrass, Italian plant response rating [8, 22]: 0
- Plant response rating, Galium [9, 23]: 0
- Plant response rating, Galium [9, 24]: 0
- Plant response rating, Pigweed [10, 19]: 0
- Plant response rating, Pigweed [10, 20]: 0
- Plant response rating, Pigweed [10, 21]: 0
- Pigweed plant response rating [10, 22]: 0
- Plant response rating, Rice [11]: 0
- Plant response rating, Ragweed [12, 19]: 0
- Plant response rating, Ragweed [12, 20]: 0
- Plant response rating, Ragweed [12, 21]: 0
- Ragweed plant response rating [12, 22]: 0
- Plant response rating, Corn [13, 23]: 0
- Plant response rating, Corn [13, 24]: 20
- Plant response rating, Wheat [14, 23]: 0
- Plant response rating, Wheat [14, 24]: 0
